According to patent US20260007758A1, “SO[…]-2 RECEPTOR (SST2R) NON-PEPTIDE DRUG CONJUGATES AND USES THEREOF” (Crinetics Pharmaceuticals, Inc., priority 2024, published 2026):

Experiments:
Assay type in all cases: cell-based
[1] = system: NCI-H524 human small cell lung cancer cells; assay: H524 assay: inhibition of cell proliferation (CellTiter Glo); conditions: 2 h treatment, washout, additional 70 h incubation
In short: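 Proliferation was measured by CellTiter Glo 70 h after a washout that followed a 2 h pulse of NDC. Doses were an 11-point, two-fold dilution series from 1 uM. IC50 was fitted with a four-parameter model to luminescence-based % inhibition relative to control cells.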

[2] = molecular target: T1, human somatostatin receptor subtype 2 (Homo sapiens, UniProt P30874); assay: Functional assay for SSTR2 agonists (HTRF cAMP); conditions: CHO-K1 cells stably expressing human SST2; NKH477-stimulated cAMP; 20 min at 37 C; read-out: hSST2 cAMP Avg EC50
T1 construct: expressed in transfected cells
T1 sequence (P30874 whole entry): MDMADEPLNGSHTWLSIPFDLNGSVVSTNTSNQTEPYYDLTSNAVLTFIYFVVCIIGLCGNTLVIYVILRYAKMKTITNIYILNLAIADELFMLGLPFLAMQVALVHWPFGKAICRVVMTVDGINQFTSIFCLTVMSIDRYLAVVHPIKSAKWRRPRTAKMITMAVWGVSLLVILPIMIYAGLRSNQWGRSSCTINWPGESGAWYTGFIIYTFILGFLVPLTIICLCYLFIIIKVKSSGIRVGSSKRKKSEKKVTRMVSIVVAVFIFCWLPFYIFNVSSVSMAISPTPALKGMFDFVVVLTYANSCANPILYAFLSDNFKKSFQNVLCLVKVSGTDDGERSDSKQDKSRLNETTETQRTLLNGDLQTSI
In short: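 Agonist activity read as fall in intracellular cAMP: HTRF 665/620 nm ratio regressed to a cAMP standard curve, EC50 fitted. Stable human SSTR2 CHO-K1 cells exposed 20 min at 37 °C to compound, final concentrations typically 0-10,000 nM.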

SST2 = molecular target: T2, SST2 (Homo sapiens, UniProt P30874); assay: PathHunter CHO-K1 SST2 Internalization Assay; conditions: PathHunter CHO-K1 SST2 cells; 90 min at 37 C; luminescence; read-out: Internalization EC50
T2 construct: host or cells: PathHunter CHO-K1 SST2 cells
T2 sequence (P30874 whole entry): as above
In short: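 Four-parameter nonlinear fits of background-corrected luminescence (duplicate means) gave IC50s. NDCs were serially diluted 1:3 over 11 points from a 10 uM final top concentration and incubated 90 min at 37 C with human SST2 CHO-K1 cells plated 48 h earlier at 2500/well. Beta-Glo read-out developed 60 min at RT.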

Row | SMILES | EC50 [1] [nM] | EC50 [2] [nM] | EC50 (SST2) [nM]
1 | CC[C@H](C)[C@@H]([C@@H](CC(=O)N1CCC[C@H]1[C@H](OC)[C@@H](C)C(=O)N[C@H](C)[C@@H](O)c1ccccc1)OC)N(C)C(=O)[C@@H](NC(=O)[C@H](C(C)C)N(C)C(=O)OCc1ccc(NC(=O)[C@H](C)NC(=O)[C@@H](NC(=O)CCOCCC(=O)NCCNc2ncc(-c3cc(C)cc(F)c3)c(N3CCC(N)CC3)c2-c2nc3cc(F)cc(OC)c3[nH]2)C(C)C)c(O[C@@H]2O[C@H](C(=O)O)[C@@H](O)[C@H](O)[C@H]2O)c1)C(C)C [Compound 140] | 6.6 | 0.15 | 2.9
2 | CC[C@H](C)[C@@H]([C@@H](CC(=O)N1CCC[C@H]1[C@H](OC)[C@@H](C)C(=O)N[C@H](C)[C@@H](O)c1ccccc1)OC)N(C)C(=O)[C@@H](NC(=O)[C@H](C(C)C)N(C)C(=O)OCc1ccc(NC(=O)[C@H](C)NC(=O)[C@@H](NC(=O)CCOCCn2cc(CCC(=O)NCCNc3ncc(-c4cc(C)cc(F)c4)c(N4CCC(N)CC4)c3-c3nc4ccc(Cl)cc4[nH]3)nn2)C(C)C)c(O[C@@H]2O[C@H](C(=O)O)[C@@H](O)[C@H](O)[C@H]2O)c1)C(C)C [Compound 141] | 20 | 0.1 | 8.8
3 | CC[C@H](C)[C@@H]([C@@H](CC(=O)N1CCC[C@H]1[C@H](OC)[C@@H](C)C(=O)N[C@H](C)[C@@H](O)c1ccccc1)OC)N(C)C(=O)[C@@H](NC(=O)[C@H](C(C)C)N(C)C(=O)OCc1ccc(NC(=O)[C@H](CCCNC(N)=O)NC(=O)[C@@H](NC(=O)c2cn(CCOCCC(=O)NCCNc3ncc(-c4cc(C)cc(F)c4)c(N4CCC(N)CC4)c3-c3nc4ccc(Cl)cc4[nH]3)nn2)C(C)C)cc1)C(C)C [Compound 142] | 790 | 0.37 | 6.3
4 | CC[C@H](C)[C@@H]([C@@H](CC(=O)N1CCC[C@H]1[C@H](OC)[C@@H](C)C(=O)N[C@H](C)[C@@H](O)c1ccccc1)OC)N(C)C(=O)[C@@H](NC(=O)[C@H](C(C)C)N(C)C(=O)OCc1ccc(NC(=O)[C@H](CCCNC(N)=O)NC(=O)[C@@H](NC(=O)c2cc(NCCOCCOCCOCCOCCC(=O)NCCNc3ncc(-c4cc(C)cc(F)c4)c(N4CCC(N)CC4)c3-c3nc4ccc(Cl)cc4[nH]3)cc(C(=O)NCC(=O)O)c2)C(C)C)cc1)C(C)C [Compound 144] | 81 | 0.25 | 21
5 | CC[C@H](C)[C@@H]([C@@H](CC(=O)N1CCC[C@H]1[C@H](OC)[C@@H](C)C(=O)N[C@H](C)[C@@H](O)c1ccccc1)OC)N(C)C(=O)[C@@H](NC(=O)[C@H](C(C)C)N(C)C(=O)OCc1ccc(NC(=O)[C@H](CCCNC(N)=O)NC(=O)[C@@H](NC(=O)c2cc(NCCOCCC(=O)NCCNc3ncc(-c4cc(C)cc(F)c4)c(N4CCC(N)CC4)c3-c3nc4ccc(Cl)cc4[nH]3)cc(C(=O)NCCC(=O)O)c2)C(C)C)cc1)C(C)C [Compound 145] | 78 | 0.38 | 17
6 | CC[C@H](C)[C@@H]([C@@H](CC(=O)N1CCC[C@H]1[C@H](OC)[C@@H](C)C(=O)N[C@H](C)[C@@H](O)c1ccccc1)OC)N(C)C(=O)[C@@H](NC(=O)[C@H](C(C)C)N(C)C(=O)OCc1ccc(NC(=O)[C@H](CCCNC(N)=O)NC(=O)[C@@H](NC(=O)c2cc(NCCOCCC(=O)NCCNc3ncc(-c4cc(C)cc(F)c4)c(N4CCC(N)CC4)c3-c3nc4ccc(Cl)cc4[nH]3)cc(C(=O)NCCCC(=O)O)c2)C(C)C)cc1)C(C)C [Compound 146] | 62 | 0.29 | 9.9
7 | CC[C@H](C)[C@@H]([C@@H](CC(=O)N1CCC[C@H]1[C@H](OC)[C@@H](C)C(=O)N[C@H](C)[C@@H](O)c1ccccc1)OC)N(C)C(=O)[C@@H](NC(=O)[C@H](C(C)C)N(C)C(=O)OCc1ccc(NC(=O)[C@H](CCCNC(N)=O)NC(=O)[C@@H](NC(=O)c2cc(NCCOCCC(=O)NCCNc3ncc(-c4cc(C)cc(F)c4)c(N4CCC(N)CC4)c3-c3nc4ccc(Cl)cc4[nH]3)cc(C(=O)NC[C@@H](N)C(=O)O)c2)C(C)C)cc1)C(C)C [Compound 147] | 35 | 0.56 | 23
8 | CC[C@H](C)[C@@H]([C@@H](CC(=O)N1CCC[C@H]1[C@H](OC)[C@@H](C)C(=O)N[C@H](C)[C@@H](O)c1ccccc1)OC)N(C)C(=O)[C@@H](NC(=O)[C@H](C(C)C)N(C)C(=O)OCc1ccc(NC(=O)[C@H](CCCNC(N)=O)NC(=O)[C@@H](NC(=O)c2cc(NC(=O)CCOCCC(=O)NCCNc3ncc(-c4cc(C)cc(F)c4)c(N4CCC(N)CC4)c3-c3nc4ccc(Cl)cc4[nH]3)cc(C(=O)NCC(=O)O)c2)C(C)C)cc1)C(C)C [Compound 149] | 100 | 0.033 | 12
9 | CC[C@H](C)[C@@H]([C@@H](CC(=O)N1CCC[C@H]1[C@H](OC)[C@@H](C)C(=O)N[C@H](C)[C@@H](O)c1ccccc1)OC)N(C)C(=O)[C@@H](NC(=O)[C@H](C(C)C)N(C)C(=O)OCc1ccc(NC(=O)[C@H](CCCNC(N)=O)NC(=O)[C@@H](NC(=O)c2cc(NC(=O)CCOCCOCCOCCOCCC(=O)NCCNc3ncc(-c4cc(C)cc(F)c4)c(N4CCC(N)CC4)c3-c3nc4ccc(Cl)cc4[nH]3)cc(C(=O)NCC(=O)O)c2)C(C)C)cc1)C(C)C [Compound 150] | 53 | 0.083 | 8.3
10 | CC[C@H](C)[C@@H]([C@@H](CC(=O)N1CCC[C@H]1[C@H](OC)[C@@H](C)C(=O)N[C@H](C)[C@@H](O)c1ccccc1)OC)N(C)C(=O)[C@@H](NC(=O)[C@H](C(C)C)N(C)C(=O)OCc1ccc(NC(=O)[C@H](CCCNC(N)=O)NC(=O)[C@@H](NC(=O)c2cc(NCCCCCC(=O)NCCNc3ncc(-c4cc(C)cc(F)c4)c(N4CCC(N)CC4)c3-c3nc4ccc(Cl)cc4[nH]3)cc(C(=O)NCC(=O)O)c2)C(C)C)cc1)C(C)C [Compound 154] | 39 | 1.6 | 7.7
11 | CC[C@H](C)[C@@H]([C@@H](CC(=O)N1CCC[C@H]1[C@H](OC)[C@@H](C)C(=O)N[C@H](C)[C@@H](O)c1ccccc1)OC)N(C)C(=O)[C@@H](NC(=O)[C@H](C(C)C)N(C)C(=O)OCc1ccc(NC(=O)[C@H](CCCNC(N)=O)NC(=O)[C@@H](NC(=O)c2cc(NC(=O)CCOCCn3cc(CCC(=O)NCCNc4ncc(-c5cc(C)cc(F)c5)c(N5CCC(N)CC5)c4-c4nc5ccc(Cl)cc5[nH]4)nn3)cc(C(=O)NCC(=O)O)c2)C(C)C)cc1)C(C)C [Compound 155] | 300 | 0.44 | 10
12 | CC[C@H](C)[C@@H]([C@@H](CC(=O)N1CCC[C@H]1[C@H](OC)[C@@H](C)C(=O)N[C@H](C)[C@@H](O)c1ccccc1)OC)N(C)C(=O)[C@@H](NC(=O)[C@H](C(C)C)N(C)C(=O)OCc1ccc(NC(=O)[C@H](CCCNC(N)=O)NC(=O)[C@@H](NC(=O)c2cc(NC(=O)C[C@@H](N)C(=O)NCCOCCC(=O)NCCNc3ncc(-c4cc(C)cc(F)c4)c(N4CCC(N)CC4)c3-c3nc4ccc(Cl)cc4[nH]3)cc(C(=O)NCC(=O)O)c2)C(C)C)cc1)C(C)C [Compound 156] | 140 | 0.28 | 14
13 | CC[C@H](C)[C@@H]([C@@H](CC(=O)N1CCC[C@H]1[C@H](OC)[C@@H](C)C(=O)N[C@H](C)[C@@H](O)c1ccccc1)OC)N(C)C(=O)[C@@H](NC(=O)[C@H](C(C)C)N(C)C(=O)OCc1ccc(NC(=O)[C@H](CCCNC(N)=O)NC(=O)[C@@H](NC(=O)c2cc(NCCC(=O)NCCNc3ncc(-c4cc(C)cc(F)c4)c(N4CCC(N)CC4)c3-c3nc4ccc(Cl)cc4[nH]3)cc(C(=O)NCC(=O)O)c2)C(C)C)cc1)C(C)C [Compound 157] | 95 | 0.45 | 20
14 | CC[C@H](C)[C@@H]([C@@H](CC(=O)N1CCC[C@H]1[C@H](OC)[C@@H](C)C(=O)N[C@H](C)[C@@H](O)c1ccccc1)OC)N(C)C(=O)[C@@H](NC(=O)[C@H](C(C)C)N(C)C(=O)OCc1ccc(NC(=O)[C@H](CCCNC(N)=O)NC(=O)[C@@H](NC(=O)c2cc(C(=O)NCC(=O)O)cc(N(C)CCOCCC(=O)NCCNc3ncc(-c4cc(C)cc(F)c4)c(N4CCC(N)CC4)c3-c3nc4ccc(Cl)cc4[nH]3)c2)C(C)C)cc1)C(C)C [Compound 158] | 40 | 0.15 | 5.1
15 | CC[C@H](C)[C@@H]([C@@H](CC(=O)N1CCC[C@H]1[C@H](OC)[C@@H](C)C(=O)N[C@H](C)[C@@H](O)c1ccccc1)OC)N(C)C(=O)[C@@H](NC(=O)[C@H](C(C)C)N(C)C(=O)OCc1ccc(NC(=O)[C@H](CCCNC(N)=O)NC(=O)[C@@H](NC(=O)c2cc(C(=O)NCC(=O)O)cc(N(C)CCOCCOCCOCCOCCC(=O)NCCNc3ncc(-c4cc(C)cc(F)c4)c(N4CCC(N)CC4)c3-c3nc4ccc(Cl)cc4[nH]3)c2)C(C)C)cc1)C(C)C [Compound 159] | 130 | 1.2 | 23
16 | CC[C@H](C)[C@@H]([C@@H](CC(=O)N1CCC[C@H]1[C@H](OC)[C@@H](C)C(=O)N[C@H](C)[C@@H](O)c1ccccc1)OC)N(C)C(=O)[C@@H](NC(=O)[C@H](C(C)C)N(C)C(=O)OCc1ccc(NC(=O)[C@H](CCCNC(N)=O)NC(=O)[C@@H](NC(=O)c2cc(OCCOCCC(=O)NCCNc3ncc(-c4cc(C)cc(F)c4)c(N4CCC(N)CC4)c3-c3nc4ccc(Cl)cc4[nH]3)cc(C(=O)NCC(=O)O)c2)C(C)C)cc1)C(C)C [Compound 160] | 100 | 0.25 | 7.4
